From patent publication US5763479A, “Naphthoquinone derivatives for the treatment of chronic inflammation” (KS Biomedix Ltd., priority 1991, dated 1998)
Like-named read-outs stand apart in the source and are kept apart here. One block for each compound: values may come before it.

Experiments:
[1] = redox potential (E1/8) against a standard calomel electrode; type: physicochemical; conditions: for E1/2 (mV): Table 2
[2] = target: T1, G6PD (Homo sapiens, UniProt P11413); assay: decrease in G6PD activity in synovial lining cells of human rheumatoid tissue maintained in vitro; type: cell-based; set-up: synovial lining cells of human rheumatoid tissue maintained in vitro; from tissue; host or cells: human rheumatoid synovial tissue (synovial lining cells), maintained in vitro; conditions: mean±SEM
T1 sequence (P11413 2-515 limits assumed): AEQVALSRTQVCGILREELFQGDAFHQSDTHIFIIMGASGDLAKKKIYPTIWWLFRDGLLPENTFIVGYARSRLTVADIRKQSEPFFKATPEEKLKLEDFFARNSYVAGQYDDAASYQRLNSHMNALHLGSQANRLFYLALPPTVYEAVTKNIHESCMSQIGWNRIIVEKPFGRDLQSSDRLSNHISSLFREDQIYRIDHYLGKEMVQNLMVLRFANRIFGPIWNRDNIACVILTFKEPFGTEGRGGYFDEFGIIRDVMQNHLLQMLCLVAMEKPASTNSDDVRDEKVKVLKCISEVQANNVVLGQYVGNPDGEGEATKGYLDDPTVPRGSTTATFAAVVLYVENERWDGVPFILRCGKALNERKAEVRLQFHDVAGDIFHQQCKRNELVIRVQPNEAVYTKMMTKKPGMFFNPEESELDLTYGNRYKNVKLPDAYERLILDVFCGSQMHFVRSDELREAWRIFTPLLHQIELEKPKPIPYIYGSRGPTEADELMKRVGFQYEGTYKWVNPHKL
Text: The percentage decreases in […] activity (mean±SEM) in the synovial lining cells of human rheumatoid tissue maintained in vitro, induced by naphthoquinone of formula I (R=H, X=O), including compounds outside the scope of the invention, are given in Table 2.

[3] = test system: glucose 6-phosphate dehydrogenase (G6PD); assay: G6PD in synovial lining cells of arthritic rabbits (Example 2); type: in vivo, rabbit
Method: (§1) In each of separate groups of six, rabbits were treated with the same volume of either olive oil alone or dimethoxynaphthoquinone in olive oil for six weeks after the initiation of arthritis (six weeks after challenge). The treatment was 25 mg/kg orally twice a week.
(§2) The rabbits were investigated for the concentration of G6PD, 6PGL and 6PGD in synovial lining cells. The respective mean values (±SEM) for the treatment of olive oil alone were 15.4±1.9, 2.5±0.3 and 8.2±1.1; the results for those treated with dimethoxynaphthoquinone were 7.7±1.2, negligible and 4.6±1.1.

[4] = test system: 6-phosphogluconolactonase (6PGL); assay: 6PGL in synovial lining cells of arthritic rabbits (Example 2); type: in vivo, rabbit; conditions: 25 mg/kg orally twice a week, six weeks; olive oil alone 2.5±0.3
Method: as §1, §2

[5] = test system: 6-phosphogluconate dehydrogenase (6PGD); assay: 6PGD in synovial lining cells of arthritic rabbits (Example 2); type: in vivo, rabbit; conditions: 25 mg/kg orally twice a week, six weeks; olive oil alone 8.2±1.1
Method: as §1, §2

[6] = target: T1, G6PD; assay: G6PD activity before and after intra-articular injection in patients with chronic arthritic inflammation; type: in vivo
Method: (§3) Two human patients suffering from chronic arthritic inflammation were given intra-articular injections of menadione bisulphite. The G6PD activity (mean integrated extinction ×10^3 /10 min) and lysosomal latency (% bound activity) were measured before and after injection. The G6PD activity decreased from 423 to 188 in one case and from 245 to 127 in the other; the lysosomal latency increased, respectively from 0 to 13 and from 0 to 31 (normal values are around 40% latency).

[7] = test system: lysosomal latency; assay: lysosomal latency before and after intra-articular injection in patients with chronic arthritic inflammation; type: in vivo, human; conditions: before injection 0, normal around 40%
Method: as §3

[8] = chemical stability and reactivity; type: physicochemical; conditions: no double bond between positions 2 and 3
[9] = test system: chronic RA; assay: therapeutic efficacy by intra-articular injection in chronic RA patients; type: in vivo, human; conditions: intra-articular injections
Text: Other soluble compounds of the invention are menadiol diphosphate, menadiol disulphate and 2-methyl-1,4-naphthohydroquinone bis(hydrogen succinate), sodium salt.

[10] = test system: challenged joint; assay: established immune (ovalbumin) arthritis in rabbits, oral menadione epoxide: joint temperature and degree of inflammation; type: in vivo, rabbit (New Zealand white)
Method: (§4) Twenty-two female New Zealand white rabbits (initial weight 1.5-2.0 kg) were immunised subcutaneously between the scapulae, with 0.5 ml of complete Freund's adjuvant containing 2.5 mg of ovalbumin (Sigma). A booster inoculation was given two weeks later. Four weeks after this, the right knee was challenged with an intra-articular injection (0.5 ml) of sterile saline containing ovalbumin (10 mg/ml). One week before this; twice a week for the next two weeks; and weekly thereafter, the temperature of both knees was measured on the medial side of the patella by means of a Digi-Sense thermocouple thermometer (Cole-Palmer Instrument Co., Chicago, Ill., U.S.A.). They were skin-tested before challenge to ensure that the cell-mediated immunity was equivalent in the treated and control rabbits. […] They were killed in pairs, treated and untreated, by intravenous injection of phenobarbitone sodium at various intervals from five to nine weeks later. After removal, the synovial tissue was cut into pieces of not greater than 0.5 cm^3; these were immersed for up to 1 min in a 5% solution of polyvinyl alcohol containing 5% CaCl2.2H2 O (Chayen et al, 1973) and then chilled to -70 ° C. in n-hexane (BDH: low in aromatic hydrocarbons grade). The tissue was stored in dry tubes at -70° C. and examined within two weeks.
Sections were cut (10 μm) in a Bright's cryostat (cabinet temperature of -30° C.) with the knife cooled with solid carbon dioxide. The sections were flash-dried on to slides taken from the ambient temperature of the laboratory (Chayen et al, 1973) and stored briefly in a desiccator before being tested for enzymatic activity.
Depending on the amount of tissue, sections were taken from up to fifteen regions of each challenged joint and stained with 0.1% toluidine blue in 0.1M acetate buffer, pH 6.1. They were assessed for thickening of the synovial lining cell layer; degree of infiltration by both chronic and acute inflammatory cells; and fibrosis. Each of these criteria was evaluated on a scale that ranged from 0 to ++. A value based on all these criteria was given for the response in each challenged joint and the degree of inflammation of the whole joint was assessed on an arbitrary scale of - to ++.

[11] = test system: glucose 6-phosphate dehydrogenase (G6PD); assay: G6PD activity in synovial lining and desquamating cells of arthritic rabbits treated with menadione epoxide; type: in vivo, rabbit
Method: as §4, with “weeks. […]” for “weeks.”

[12] = test system: 6-phosphogluconolactonase (6PGL); assay: 6PGL activity in synovial lining and desquamating cells of arthritic rabbits treated with menadione epoxide; type: in vivo, rabbit
Method: as §4, with “weeks. […]” for “weeks.”

[13] = solubility; type: physicochemical
[14] = test system: immune arthritis; conditions: rabbits fed by gavage, cited from earlier work
[15] = test system: neotetrazolium chloride; conditions: sections of various tissues; compared with phenazine methosulphate; cited from earlier work

E1/2 (mV) [1]: -170 mV | % decrease in G6PD [2]: 37 ± 13.0%
Compound: CC1=C(SC[C@H](NC(=O)CC[C@H](N)C(=O)O)C(=O)NCC(=O)O)C(=O)c2ccccc2C1=O [3-glutathionylmenadione, reference compound]

E1/2 (mV) [1]: -190 mV | % decrease in G6PD [2]: 25 ± 9.7%
Compound: CC1=C(SCCC(N)C(=O)O)C(=O)c2ccccc2C1=O (centres unmarked) [3-homocysteinylmenadione, reference compound]

E1/2 (mV) [1]: -250 mV | % decrease in G6PD [2]: 49 ± 14.0%
Compound: COC1=C(OC)C(=O)c2ccccc2C1=O [dimethoxynaphthoquinone, 2,3-dimethoxy-1,4-naphthoquinone]
concentration of G6PD in synovial lining cells (mean ±SEM) ([3]; 25 mg/kg orally twice a week, six weeks, olive oil alone 15.4±1.9): 7.7±1.2 | effect on all three enzyme activities: G6PD ([3]; summary in words for G6PD, 6PGL and 6PGD): greatly reduced | concentration of 6PGL in synovial lining cells (mean ±SEM) [4]: negligible | concentration of 6PGD in synovial lining cells (mean ±SEM) [5]: 4.6±1.1

E1/2 (mV) [1]: -290 mV | % decrease in G6PD [2]: 61%
Compound: CC1=C(C)C(=O)c2ccccc2C1=O [dimethylnaphthoquinone, 2,3-dimethyl-1,4-naphthoquinone]

redox potential (E1/8) measured in human plasma ([1]; human plasma): -640 mV | redox potential compared with menadione ([1]; versus menadione): higher redox potential than menadione | reactivity with thiols [8]: unreactive
Compound: CC1(S(=O)(=O)O)CC(=O)c2ccccc2C1=O (centres unmarked) [menadione bisulphite, 2-methyl-l,4-dioxotetralin-sulphonate]
G6PD activity after injection ([6]; first patient, before injection 423): 188 mean integrated extinction ×10^3 /10 min | G6PD activity after injection ([6]; second patient, before injection 245): 127 mean integrated extinction ×10^3 /10 min | lysosomal latency after injection ([7]; first patient): 13 % bound activity | lysosomal latency after injection ([7]; second patient): 31 % bound activity | therapeutic efficacy [9]: demonstrated

Compound: CC12OC1C(=O)c1ccccc1C2=O (centres unmarked) [menadione epoxide]
median overall difference in temperature expressed per day (group) ([10]; from two weeks after treatment until killed, control median 0.589 (0.308 to 0.687), p=0.04): 0.096 °C day | overall degree of inflammation in the challenged joint ([10]; one of the twelve treated rabbits (totally negative)): - | overall difference in temperature between challenged and unchallenged knees, expressed per day (single rabbit) ([10]; one treated rabbit, from two weeks after start of treatment until killed, 25 mg/kg bi-weekly by gavage, control rabbit 0.7110): 0.096 °C | inflammation assessed by temperature in vivo, visual inspection post mortem and histological examination ([10]; oral administration, established chronic inflammation): marked decrease in the inflammation | G6PD activity in the desquamating cells ([11]; desquamating cells, as against 25.5 units in "rheumatoid" intact lining cells and 6 units in normal joints): 45.7 units | effect on G6PD activity ([11]; synovial lining cells): decrease both activities towards normal levels | 6PGL activity in the desquamating cells ([12]; desquamating cells, despite very elevated G6PD): no equivalent increase | effect on 6PGL activity ([12]; synovial lining cells): decrease both activities towards normal levels

Compound: CC1=CC(=O)c2ccccc2C1=O [menadione, 2-methyl-1,4-naphthoquinone]
E1/2 (mV) [1]: -220 mV | redox potential (E1/8) ([1]; recorded against a standard calomel electrode, 90% ethanol-0.005M acetate buffer pH 4.0): -220 mV | solubility [13]: lipid soluble | chronic inflammation assessed histologically and by enzyme activity in synovial lining cells ([14]; versus control animals): marked diminution | effect on immune arthritis [14]: significantly ameliorates | effect on immune arthritis ([14]; listed as Menadione): effective | transfer of reducing equivalents to neotetrazolium chloride [15]: as effective as phenazine methosulphate | % decrease in G6PD [2]: 38 ± 6.9%

E1/2 (mV) [1]: -355 mV | % decrease in G6PD [2]: 47 ± 11.5%
Compound: CC1=C(O)C(=O)c2ccccc2C1=O [phthiocol]
